In PMC2923755, “Thermolability of mutant MMACHC protein in the vitamin B12-responsive cblC disorder” (Molecular Genetics and Metabolism, 2010):
Changes are numbered by the printed parent chain. “And” between values parts separate entries of the source, which are not always exact repeats. Equal values may be shown once. “Also recorded” adds a separate entry of the source.

Tests used:
MMACHC-R161Q [1] = target: T1, MMACHC-R161Q (Homo sapiens, UniProt Q9Y4U1, R161Q); experiment: Differential scanning fluorimetry (DSF), stabilization by cobalamins; type: binding; conditions: DSF; for ΔTm max: Tm at 50 μM ligand minus Tm at 0 μM ligand
T1 construct: His-tag (N, cleaved yes); made in house; host or cells: E. coli BL21 DE3
T1 sequence (Q9Y4U1 1-282 R161Q): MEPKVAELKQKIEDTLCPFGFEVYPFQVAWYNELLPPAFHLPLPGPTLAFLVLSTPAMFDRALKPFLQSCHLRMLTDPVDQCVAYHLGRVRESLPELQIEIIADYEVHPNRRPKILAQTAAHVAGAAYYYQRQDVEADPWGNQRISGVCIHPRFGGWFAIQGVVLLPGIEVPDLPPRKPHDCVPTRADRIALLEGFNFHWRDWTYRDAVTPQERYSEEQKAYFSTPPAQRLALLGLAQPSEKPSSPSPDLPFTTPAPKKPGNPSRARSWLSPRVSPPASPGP
Protocol: (§1) DSF was performed and analyzed as described in Niesen et al., with minor modifications. Purified MMACHC proteins were diluted to 0.1 mg/ml (3 μM) in buffer (10 mM HEPES pH 7.5, 0.5 M NaCl, 5% glycerol) with 1:1000 Sypro Orange (Invitrogen) and run in triplicate. The proteins were heated from 5 to 75 °C with a ramp rate of 1 °C/min in a thermocycler (Bio-rad C1000 Thermocycler, CFX96 Real-time system). All graphs were normalized so that minimum fluorescence was set to 0 and maximum fluorescence set to 1. […] Final graphs and AC50’s were generated using Kadeidagraph 4.0 software (Synergy Software, Reading, PA). AC50’s were determined by fitting the ΔTm vs. ligand concentration curves to the equation ΔTm = ΔTm max[S]/(AC50 + [S]) where ΔTm is the change in melting temperature (Tm[protein + ligand] − Tm[protein]), ΔTm max is the maximal change in Tm at saturating (50 μM) ligand concentration and [S] is the ligand concentration.
(§2) Wild-type (MMACHC-wt) and mutant (MMACHC-R161Q) MMACHC were expressed and purified to >95% purity, with His-tag removed, as judged by SDS–PAGE (Fig. 2A). In order to investigate the thermostability of MMACHC we used DSF, a method that measures protein stability and ligand-induced changes in stability [[20,21]]. DSF uses an environmentally sensitive dye, such as Sypro orange, to monitor protein-unfolding caused by heat denaturation. As the protein unfolds, the dye, which has a higher fluorescence quantum yield in nonpolar environments than in aqueous media, binds to hydrophobic regions of the protein, causing a large increase in fluorescence [[22,23]]. Protein stability is expressed as the melting point of the protein (Tm), that is, the transition midpoint of the fluorescence curve, corresponding to the temperature at which half of the protein molecules are folded and half are unfolded. […] Even lower was the stability of MMACHC-R161Q (Tm = 37.1 ± 0.7 °C) (Fig. 2B). The difference in Tm was small but nonetheless significant (p < 0.01). A second difference between the wild-type and mutant proteins was the shape of the unfolding curves, with the unfolding of the mutant protein showing high cooperativity indicating a two-state unfolding mechanism while the unfolding of the wild-type protein stretched over a larger temperature range and comprised two phases (Fig. 2B; also Fig. 3A at 0 μM OHCbl).

MMACHC-wt [2] = target: T2, MMACHC-wt (Homo sapiens, UniProt Q9Y4U1); experiment: as above; type: binding; conditions: for ΔTm max: Tm at 50 μM ligand minus Tm at 0 μM ligand
T2 construct: His-tag (N, cleaved yes); made in house; host or cells: E. coli BL21 DE3
T2 sequence (Q9Y4U1 1-282): T1 sequence (Q9Y4U1 1-282 R161Q) with Q161R
Protocol: as §1, §2

GST-MMACHC-wt [3] = target: T3, GST-MMACHC-wt (Homo sapiens, UniProt Q9Y4U1); experiment: UV-visible absorption spectra, base-on/base-off binding; conditions: 5 μM cobalamin, 50 μM protein, pH 7.0; for α/β-Peak: nm; for γ-Peak: wavelength
T3 construct: made in house
T3 sequence (Q9Y4U1 1-282): T1 sequence (Q9Y4U1 1-282 R161Q) with Q161R
Protocol: (§3) To determine base-on or base-off binding, 5 μM of the appropriate cobalamin or cobinamde in buffer (100 mM Tris, pH 7.0), was incubated in the dark with 400 μl total of 50 μM MMACHC protein (wild-type or R161Q), prepared in the same buffer, or alone, for 5 min at room temperature. In order to retain the high amounts of protein necessary for these experiments, the His-tag (wt and R161Q) or GST-tag (wt protein) was left on. Absorption spectrum measurements were carried out using a MOS-250 spectrometer and recorded using Bio-Kine 32 v4.20 software.
(§4) In order to determine whether the R161Q mutation interferes with the ability of MMACHC to support this transition, we examined the UV–visible absorption spectra for the proteins bound to AdoCbl, as an example of an alkylcobalamin, as well as for the proteins bound to CNCbl and OHCbl. Each cobalamin was added at a concentration of […] (Fig. 5). To determine whether the cobalamin was base-on or base-off, in the case of CNCbl both base-on and base-off spectra were determined for the free vitamin, as previously reported [[12,14]]. […] Confirming our earlier data, GST-tagged MMACHC-wt bound CNCbl in the base-off state (Table 2). […] Both MMACHC-wt and MMACHC-R161Q bound AdoCbl in the base-off state (Fig. 5; Table 2). […] Finally, neither MMACHC-wt nor MMACHC-R161Q modified OHCbl binding, which retained the base-on profile regardless of the MMACHC species present (Fig. 5; Table 2).

His-MMACHC-wt = target: T4, His-MMACHC-wt (Homo sapiens, UniProt Q9Y4U1); experiment: as above; conditions: 5 μM cobalamin, 50 μM protein, pH 7.0; for α/β-Peak: nm; for γ-Peak: wavelength
T4 construct: made in house; host or cells: E. coli BL21 DE3
T4 sequence (Q9Y4U1 1-282): T1 sequence (Q9Y4U1 1-282 R161Q) with Q161R
Protocol: as §3, §4

His-MMACHC-R161Q [4] = target: T5, His-MMACHC-R161Q (Homo sapiens, UniProt Q9Y4U1, R161Q); experiment: as above; conditions: 5 μM cobalamin, 50 μM protein, pH 7.0; for α/β-Peak: nm; for γ-Peak: wavelength
T5 construct: made in house; host or cells: E. coli BL21 DE3
T5 sequence (Q9Y4U1 1-282 R161Q): T1 sequence (Q9Y4U1 1-282 R161Q)
Protocol: […] In order to retain the high amounts of protein necessary for these experiments, the His-tag (wt and R161Q) or GST-tag (wt protein) was left on. Absorption spectrum measurements were carried out using a MOS-250 spectrometer and recorded using Bio-Kine 32 v4.20 software.
as §4

[5] = UV-visible absorption spectra of free cobalamin; type: physicochemical; conditions: for α/β-Peak: nm; for γ-Peak: wavelength
Protocol: as §3, §4

GST-MMACHC-wt [6] = target: T3, GST-MMACHC-wt; design: method as in PMID 19700356; conditions: earlier demonstration; cited from earlier work
His-MMACHC-R161Q [7] = target: T5, His-MMACHC-R161Q; experiment: UV-visible absorption spectra, base-on/base-off binding; conditions: 20 μM CNCbl, pH 7.0
MMACHC-R161Q [8] = target: T1, MMACHC-R161Q; design: method as in PMID 19700356; conditions: cited from earlier work; for cobalamin binding: recombinant protein, in words
MMACHC-G147D = system: MMACHC-G147D; design: method as in PMID 19700356; conditions: recombinant protein, in words; cited from earlier work
MMACHC-wt [9] = target: T2, MMACHC-wt; design: method as in PMID 19700356; conditions: published Kd; unit printed in b1 only; cited from earlier work
[10] = half-maximal effective ligand concentration for stabilization, 3 μM protein, fit of ΔTm vs ligand concentration

| Compound | ΔTm max (MMACHC-R161Q [1]) | ΔTm max (MMACHC-wt [2]) | Base-on/off (GST-MMACHC-wt [3]) | α/β-Peak (GST-MMACHC-wt [3]) [nm] | γ-Peak (GST-MMACHC-wt [3]) | Base-on/off (His-MMACHC-wt) | α/β-Peak (His-MMACHC-wt) [nm] | γ-Peak (His-MMACHC-wt) | Base-on/off (His-MMACHC-R161Q [4]) | α/β-Peak (His-MMACHC-R161Q [4]) [nm] | γ-Peak (His-MMACHC-R161Q [4]) | α/β-Peak ([5]; base-on) [nm] | γ-Peak ([5]; base-on) [nm] | cobalamin binding (MMACHC-R161Q [8]) | cobalamin binding (MMACHC-G147D) | other results |
| --- | --- | --- | --- | --- | --- | --- | --- | --- | --- | --- | --- | --- | --- | --- | --- | --- |
| Cyanocobalamin [CNCbl] | 1 °C and 1.1 ± 0.6 °C | 3.4 ± 0.6 °C | base-off and Off | 530 | 357 | Off | 531 | 358 | shifted incompletely towards full base-off binding; also recorded: On/Off | 540 | 359 | 551 | 360 | poorly; also recorded: impaired | unable to bind | α/β-Peak ([5]; base-off): 529 nm; γ-Peak ([5]; base-off): 355 nm; binding conformation (base-on/off) (GST-MMACHC-wt [6]): base-off; Base-on/off (His-MMACHC-R161Q [7]): Off; α/β-Peak (His-MMACHC-R161Q [7]; nm): 531 nm; γ-Peak (His-MMACHC-R161Q [7]; wavelength): 359; Kd (MMACHC-R161Q [8]; published Kd, unit printed in b35 only): 20 µM |
| C/C1=C2/[N-][C@H]([C@H](CC(N)=O)[C@@]2(C)CCC(=O)NC[C@@H](C)OP(=O)([O-])O[C@H]2[C@@H](O)[C@@H](n3cnc4cc(C)c(C)cc43)O[C@@H]2CO)[C@]2(C)N=C(/C(C)=C3N=C(/C=C4N=C1[C@@H](CCC(N)=O)C\4(C)C)[C@@H](CCC(N)=O)[C@]\3(C)CC(N)=O)[C@@H](CCC(N)=O)[C@]2(C)CC(N)=O.[Co+3].[OH-] [OHCbl, Hydroxocobalamin] | 4 °C and 3.7 ± 0.1 °C | 8 °C and 7.9 ± 0.6 °C | On | 522 | 355 | base-on and On | 532 | 356 | base-on and On | 535 | 354 | 525 | 350 | wild-type affinity | unable to bind | AC50 (MMACHC-R161Q [1]; [10]): 7 µM and 6.6 µM; AC50 (MMACHC-wt [2]; [10]): 3 µM; Kd (MMACHC-wt [9]): 6 µM and 5.7 µM |
